The assay addresses T1, HisF (cyclase subunit of imidazole glycerol phosphate synthase, IGPS) (Thermotoga maritima, UniProt Q9X0C6).
T1 sequence (Q9X0C6 1-253): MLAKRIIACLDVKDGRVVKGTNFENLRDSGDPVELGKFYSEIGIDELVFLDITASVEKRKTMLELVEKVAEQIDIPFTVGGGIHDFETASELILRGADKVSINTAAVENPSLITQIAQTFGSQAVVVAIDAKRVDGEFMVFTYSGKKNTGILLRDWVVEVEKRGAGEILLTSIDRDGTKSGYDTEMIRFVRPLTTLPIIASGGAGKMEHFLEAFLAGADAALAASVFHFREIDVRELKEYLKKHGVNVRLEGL
T1 sequence (Q9X0C8 1-201 partner): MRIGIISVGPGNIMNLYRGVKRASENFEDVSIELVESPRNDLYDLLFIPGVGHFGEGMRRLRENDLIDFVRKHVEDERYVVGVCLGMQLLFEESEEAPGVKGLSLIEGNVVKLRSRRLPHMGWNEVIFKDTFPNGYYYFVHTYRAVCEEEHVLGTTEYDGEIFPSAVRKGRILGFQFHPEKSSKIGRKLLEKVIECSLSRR
Nature of the assay: 1H-15N TROSY NMR titration, global fit of chemical shift changes of […] residues. The format is binding.

Results on 1 compound are retold here after publication PMC2918893 (Journal of biomolecular NMR, 2009).

As for `O=P(O)(O)OC[C@@H](O)[C@@H](O)c1c[nH]cn1` [IGP], the Kd (commonly the equilibrium constant for the complex coming apart) turned out to be 500 ± 100 µM.
